The values below come from patent US9605296B2, “Fluorogenic peptidase substrate” (ECOLE NORMALE SUPERIEURE DE LYON, priority 2011, dated 2017).

In series [1] the target is T1, microsomal leucine aminopeptidase (EC 3.4.11.2; PLA) (Sus scrofa, UniProt P15145).
T1 construct: The microsomal leucine aminopeptidase (EC 3.4.11.2) of pig kidney was purchased from Sigma; purchased Sigma 069K7356; host or cells: pig kidney (tissue-derived enzyme)
T1 sequence (P15145 1-963): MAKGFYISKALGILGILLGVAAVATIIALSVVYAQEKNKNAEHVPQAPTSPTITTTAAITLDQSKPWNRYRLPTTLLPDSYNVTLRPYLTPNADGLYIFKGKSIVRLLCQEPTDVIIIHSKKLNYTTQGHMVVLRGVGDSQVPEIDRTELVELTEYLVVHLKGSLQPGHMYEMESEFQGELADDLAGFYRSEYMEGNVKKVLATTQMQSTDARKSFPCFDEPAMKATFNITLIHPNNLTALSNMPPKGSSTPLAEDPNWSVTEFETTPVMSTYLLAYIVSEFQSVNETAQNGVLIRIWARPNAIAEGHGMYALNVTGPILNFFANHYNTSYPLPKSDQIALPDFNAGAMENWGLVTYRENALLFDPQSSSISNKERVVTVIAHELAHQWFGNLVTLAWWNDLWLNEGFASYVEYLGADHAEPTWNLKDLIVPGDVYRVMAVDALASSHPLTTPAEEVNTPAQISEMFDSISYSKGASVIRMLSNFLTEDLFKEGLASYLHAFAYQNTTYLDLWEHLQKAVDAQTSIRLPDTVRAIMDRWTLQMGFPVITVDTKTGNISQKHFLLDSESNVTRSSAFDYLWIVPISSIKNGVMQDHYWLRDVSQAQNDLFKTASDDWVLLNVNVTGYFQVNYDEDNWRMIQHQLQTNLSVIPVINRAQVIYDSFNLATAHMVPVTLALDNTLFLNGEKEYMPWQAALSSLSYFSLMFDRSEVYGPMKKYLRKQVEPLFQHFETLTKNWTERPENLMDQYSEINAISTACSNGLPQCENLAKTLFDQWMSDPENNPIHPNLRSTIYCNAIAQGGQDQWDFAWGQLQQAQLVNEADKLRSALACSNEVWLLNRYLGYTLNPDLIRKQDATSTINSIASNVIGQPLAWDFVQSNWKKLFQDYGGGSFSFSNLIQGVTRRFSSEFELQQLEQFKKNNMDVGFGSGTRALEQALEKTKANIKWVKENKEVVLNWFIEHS
Briefly: Enzymatic test: fluorescence of probes incubated with microsomal leucine aminopeptidase (PLA) in multi-well plates. The settings on record: for Delay for obtaining an intense increase in the signal: different probe concentrations, FIG. 5, generally less than 100 minutes. The series is classed as biochemical, pig. As for the experimental part:
Preamble: Within the scope of the invention, upon applying the enzymatic tests, once the minimum, concentration allowing triggering of crystal nucleation is reached, a solid fluorophore may first be deposited on the walls of the receptacle (a well in a multi-well plate), before beginning to deposit on the bottom of the receptacle. The delay associated with the triggering of nucleation (≧10 mins) is well seen on the kinetic curves in the figures shown. The enzymatic tests carried out are illustrated with the appended figures.
(§1) The probes I.1 and I.2 were evaluated by incubation with the target enzyme, microsomal leucine aminopeptidase (EC 3.4.11.2; “PLA”; commercial) in an in vitro medium in multi-well micro-plates designed for fluorescence readers.
The main tests were conducted at 25° C., in solutions buffered to pH 7.4 (physiological pH). […] A temperature of 25° C. was therefore preferred.
(§2) All the final solutions for the enzymatic tests were buffered to a pH varying from 7.4 to 7.6 (depending on the room temperature) with a 25 mM (total concentration) of Tris/Tris.HCl buffer, containing 11 mM of NaCl. The microsomal leucine aminopeptidase (EC 3.4.11.2) of pig kidney was purchased from Sigma (catalogue no. 069K7356) in the form of a suspension in ammonium sulfate (3.5 M) containing MgCl2 (10 mM), with 3.5 mg·mL^−1 of protein contents and 10-40 U/mg of protein, as determined for the standard substrate, leucyl p-nitroanilide, and was stored in a fridge at 4° C. for a maximum of 40 days before its use. […] Analyses Carried Out:
(§3) The analyses were carried out with reading of the fluorescence values, measured in RFU, versus time. The analyses were conducted in black polypropylene plates with 96 (Corning, Corning Inc.) or with 384 (Nunclon, Nunc Inc.) wells, and recorded on a microplate fluorimeter (Mithras LB940 from Berthold Technologies). This fluorimeter was used in a so-called repeated mode, where the fluorescence was measured with a reading, here selected to be 3 seconds per well, the excitation beam with a diameter of 4 mm being centered in the well. […] It should be noted that this mode of use is close to the operation of optical high throughput screening by fluorescence, which is one of the applications envisioned for these types of probes. […] In the scanning mode, the wells were divided into a square read-out grid, typically covering the well with a resolution of 8×8 to 15×15 pixels, each of the pixels being read between 0.1 and 0.3 s. This scanning mode partly removes the errors and the read-out noise of the total fluorescence of the well subject to the repeated mode, subsequently to the tendency of the fluorophore once it is released of depositing a first phase on the walls. The scanning mode as implemented here is also slower and less suitable for qualitatively following reaction kinetics. It should be noted that this mode of use is close to the operation of cell counting, which is a second application envisioned for these types of probes.
The excitation wavelength for the probes I.1 and I.2 (based on HPQ) was set to 355 nm, and the localized emission wavelength was set to 510 nm, since the fluorimeter used has filters of the bandpass type for selecting these wavelengths with a bandwidth of 14 nm for the excitation beam and of 10 nm for the emission one.
The enzyme was added last to the prepared wells. After adding the enzyme, the contents of the well were sucked up and released twice with a pipette, in order to homogenize as much as possible the mixture. […] The addition of the enzyme well by well was accomplished by observing the reading delay between the wells, so that the reaction times of each well were the same for each readout of the plate in order to allow comparison of the acquired data for different wells (in these experiments, there was a delay between 3 seconds and 20 seconds, between the readout of the neighboring wells, to be multiplied by up to 77 wells read by acquisition at a time t). […]

The nature of series [2]: Stability controls: fluorescence of probes in buffered aqueous solution without PLA enzyme (spontaneous hydrolysis, falsely positive signal). The series is classed as physicochemical. Conditions: for Signal increase relative to noise in the absence of enzyme (stability to spontaneous hydrolysis): 100 μM, 660 minutes, buffered pH ~7.6, no PLA, FIG. 4. As for the experimental part: as §1, §2, §3
A series of control measurements of background fluorescence was carried out, with wells containing some enzyme in the standard buffer without any probe. A last series of measurements was conducted by using a solution of probe I.1 prepared three weeks beforehand (“3 wks”), in order to obtain another estimation of the robustness of this probe towards spontaneous hydrolysis in practice. Each readout lasted for 3 seconds per well. […]

The nature of series [3]: Solubility in water / aqueous media (observation). Conditions: solid tosylate; dissolves easily in MeOH then dilutable with water.
[4] abbreviates: actual 10 μM, plateau not reached, underestimated.
[5] abbreviates: actual 18 μM, plateau not reached, underestimated.

For the compound `CC(C)C[C@H](N)C(=O)NCC(C)(C)N(C)C(=O)Oc1ccccc1-c1nc2ccccc2c(=O)[nH]1` [I.2], the “Predicted Conc. (initial probe concentration estimated from the average ratio)” value was 1 µM in series [1] (setting [4]); 6 µM in series [1] (setting [5]); 40 µM in series [1] (actual 32 μM); 63 µM in series [1] (actual 59 μM); 98 µM in series [1] (actual 100 μM). In addition, the “Signal/Conc. (signal plateau/concentration ratio)” value is given as 110289 RFU μM^−1 in series [1] (probe 32 μM, with PLA); 95096 RFU μM^−1 in series [1] (probe 59 μM, with PLA); 87269 RFU μM^−1 in series [1] (probe 100 μM, with PLA). Moreover, the “Delay for obtaining an intense increase in the signal” value in series [1] (with PLA) was “about 10 minutes”. In addition, the “Signal increase relative to noise in the absence of enzyme (stability to spontaneous hydrolysis)” value in series [2] is recorded as “NO signal increase”. In series [2] (probe 100 μM without enzyme, FIG. 3), the “Degradation in the absence of enzyme” value is reported as “does not degrade in the absence of enzyme”.
As to `CC(C)C[C@H](N)C(=O)NCC1CCCCN1C(=O)Oc1ccccc1-c1nc2ccccc2c(=O)[nH]1` (some centres unmarked) [I.1], the “Predicted Conc. (initial probe concentration estimated from the average ratio)” value in series [1] (setting [4]) is 0 µM; in series [1] (setting [5]), 6 µM; in series [1] (actual 32 μM), 26 µM; in series [1] (actual 59 μM) it was 42 µM; in series [1] (actual 100 μM) it was 108 µM; in series [1] (actual 378 μM, 3 wks stored solution), 419 µM. Moreover, the “Signal/Conc. (signal plateau/concentration ratio)” value turned out to be 72794 RFU μM^−1 in series [1] (probe 32 μM, with PLA); 63054 RFU μM^−1 in series [1] (probe 59 μM, with PLA); 95711 RFU μM^−1 in series [1] (probe 100 μM, with PLA); 98684 RFU μM^−1 in series [1] (probe 378 μM, 3 wks stored solution, with PLA). Also, in series [1] (with PLA, 11 h acquisition, FIG. 6), the “Photo-degradation: signals once the plateau is reached, under irradiation of the fluorescence reader” value is recorded as “do not decrease over time”. The “Delay for obtaining an intense increase in the signal” value in series [1] (with PLA) is listed as “about 10 minutes”. For the same compound, in series [2], the “Signal increase relative to noise in the absence of enzyme (stability to spontaneous hydrolysis)” value is listed as “NO signal increase”. The “Falsely positive signal due to spontaneous hydrolysis of the probe” value in series [2] (probe 209 μM and 80 μM without enzyme, 40 hours of incubation, FIG. 1) was “absence of any falsely positive signal due to spontaneous hydrolysis of the probe”. Besides, in series [3], the Solubility in water entry is listed as “not very soluble in water”.
